For this assay, the target named is T1, Recombinant human Chk-1 (GST-Chk-1) (Homo sapiens, UniProt O14757).
T1 construct: made in house; host or cells: insect cells (baculovirus, Bac-to-Bac expression system)
T1 sequence (O14757 1-476): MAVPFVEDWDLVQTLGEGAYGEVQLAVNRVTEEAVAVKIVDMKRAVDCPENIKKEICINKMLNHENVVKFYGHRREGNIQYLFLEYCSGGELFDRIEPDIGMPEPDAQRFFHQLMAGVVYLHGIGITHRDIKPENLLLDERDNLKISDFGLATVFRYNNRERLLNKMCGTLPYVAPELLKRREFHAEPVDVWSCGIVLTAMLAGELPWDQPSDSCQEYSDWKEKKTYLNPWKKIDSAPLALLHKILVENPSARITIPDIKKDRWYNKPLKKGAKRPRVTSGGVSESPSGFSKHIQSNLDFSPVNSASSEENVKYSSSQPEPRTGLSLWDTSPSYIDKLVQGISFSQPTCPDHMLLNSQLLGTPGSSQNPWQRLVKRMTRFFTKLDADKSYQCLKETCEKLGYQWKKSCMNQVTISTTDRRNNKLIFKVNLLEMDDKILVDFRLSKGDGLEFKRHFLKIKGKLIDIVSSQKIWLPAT
Briefly: Chk-1 FlashPlate Kinase Assay. It counts as biochemical. As to conditions: for inhibition at 1 µM: at a concentration of 1.0 μM; for inhibition at 10 µM: at a concentration of 10 μM, read-out: inhibition of Chk-1 (Chk-1 induced 33P incorporation). Here is the method: Recombinant human Chk-1 was expressed as a fusion protein with glutathione S-transferase at the amino-terminus (GST-Chk-1) using standard baculovirus vectors and (Bac-to-Bac®) insect cell expression system purchased from GIBCO™ Invitrogen.
Recombinant protein expressed in insect cells was purified using glutathione sepharose (Amersham Biotech) using standard procedures described by the manufacturer.
Assays (25 μL) contained 8.7 nM GST-Chk-1, 10 mM MES, 0.1 mM ethylene glycol-bis(β-aminoethylether)-N,N,N′,N′-tetraacetic acid (EGTA, pH 8.0), 2 mM DTT, 0.05% Tween 20, 3 μM peptide substrate (Biotin-ILSRRPSYRKILND-free acid) (SEQ ID NO: 1), 1 μM ATP, 0.4 μCi ^33P-γ-ATP (NEN), 4% DMSO. Reactions were incubated for 30 minutes at room temperature, terminated with 50 μL of 50 mM EDTA and […] were transferred to streptavidin-coated FlashPlates® (NEN) and incubated for 1 hour at room temperature. Plates were washed with phosphate buffered saline containing 0.01% Tween-20 and 10 mM sodium pyrophosphate. Plates were dried, sealed with Topseal™ (NEN) and amount of ^33P incorporated into the peptide substrate measure using a Packard Topcount® NXT™ scintillation counter with standard settings.

With `Cc1cnc(NC(=O)Nc2cc(Cl)ccc2OCCCNC(=O)[C@@H](N)Cc2ccc(Cl)cc2)cn1` [Compound I-16, 2-Amino-N-(3-{4-chloro-2-[3-(5-methyl-pyrazin-2-yl)-ureido]-phenoxy}-propyl)-3-(4-chloro-phenyl)-propionamide], the inhibition at 1 µM was at least 50% and the inhibition at 10 µM was at least 50%. For `N#Cc1ccc(NC(=O)Nc2cc(Cl)ccc2OCCCC(=O)N2CCOCC2)nc1` [Compound I-110, 1-[5-Chloro-2-(4-morpholin-4-yl-4-oxo-butoxy)-phenyl]-3-(5-cyano-pyridin-2-yl)-urea], the inhibition at 10 µM was at least 50%. Still for that read-out and setting: in the case of `Cc1cnc(NC(=O)Nc2cc(C(=O)N3CCN(C)CC3)ccc2OCCCNC(=O)c2ccc(Cl)cc2)cn1` [Compound I-20, 4-Chloro-N-(3-{4-(4-methyl-piperazine-1-carbonyl)-2-[3-(5-methyl-pyrazin-2-yl)-ureido]-phenoxy}-propyl)-benzamide] it was at least 50%. Take `CN1CCN(C(=O)NCCCOc2ccc(Cl)cc2NC(=O)Nc2ccc(C#N)cn2)CC1` [Compound I-18, 4-Methyl-piperazine-1-carboxylic acid (3-{4-chloro-2-[3-(5-cyano-pyridin-2-yl)-ureido]-phenoxy}-propyl)-amide]: the inhibition at 1 µM was at least 50% and the inhibition at 10 µM was at least 50%. For `Cc1cnc(NC(=O)Nc2cc(Cl)ccc2OCCCNC(=O)CN2CCOCC2)cn1` [Compound I-6, N-(3-{4-Chloro-2-[3-(5-methyl-pyrazin-2-yl)-ureido]-phenoxy}-propyl)-2-morpholin-4-yl-acetamide], the inhibition at 1 µM is at least 50% and the inhibition at 10 µM was at least 50%.

For `Cc1cnc(NC(=O)Nc2cc(C(=O)NCCN(C)C)ccc2OCCCNC(=O)c2ccc(Cl)cc2)cn1` [Compound I-9, 4-[3-(4-Chloro-benzoylamino)-propoxy]-N-(2-dimethylamino-ethyl)-3-[3-(5-methyl-pyrazin-2-yl)-ureido]-benzamide], the inhibition at 1 µM was at least 50% and the inhibition at 10 µM was at least 50%. `CN1CCN(C(=O)CCCOc2ccc(Cl)cc2NC(=O)Nc2ccc(C#N)cn2)CC1` [Compound I-14, 1-{5-Chloro-2-[4-(4-methyl-piperazin-1-yl)-4-oxo-butoxy]-phenyl}-3-(5-cyano-pyridin-2-yl)-urea]: the inhibition at 1 µM is at least 50% and the inhibition at 10 µM is at least 50%. For the compound `CN(C)CC(=O)NCCCOc1ccc(Cl)cc1NC(=O)Nc1ccc(C#N)cn1` [Compound I-39, N-(3-{4-Chloro-2-[3-(5-cyano-pyridin-2-yl)-ureido]-phenoxy}-propyl)-2-dimethylamino-acetamide], the inhibition at 1 µM was at least 50% and the inhibition at 10 µM was at least 50%. On to `Cc1cnc(NC(=O)Nc2ccc(N3CCCC3)cc2OCCCNC(=O)CN(C)C)cn1` [Compound I-11, 2-Dimethylamino-N-(3-{2-[3-(5-methyl-pyrazin-2-yl)-ureido]-5-pyrrolidin-1-yl-phenoxy}-propyl)-acetamide], for which the inhibition at 1 µM was at least 50% and the inhibition at 10 µM is at least 50%. For `NC(=O)c1ccc(NC(=O)Nc2cc(Cl)ccc2OCCCNC(=O)[C@@H](N)Cc2ccc(Cl)cc2)nc1` [Compound I-2, 6-[3-(2-{3-[2-Amino-3-(4-chloro-phenyl)-propionylamino]-propoxy}-5-chloro-phenyl)-ureido]-nicotinamide], the inhibition at 1 µM is at least 50% and the inhibition at 10 µM is at least 50%. Regarding `Cc1cnc(NC(=O)Nc2cc(Cl)ccc2OCCCNC(=O)c2ccc(N(C)C)cc2)cn1` [Compound I-15, N-(3-{4-Chloro-2-[3-(5-methyl-pyrazin-2-yl)-ureido]-phenoxy}-propyl)-4-dimethylamino-benzaminde], the inhibition at 1 µM is at least 50% and the inhibition at 10 µM is at least 50%. For `Cc1cnc(NC(=O)Nc2cc(Cl)ccc2OCCCNC(=O)CN2CCN(C)CC2)cn1` [Compound I-7, N-(3-{4-Chloro-2-[3-(5-methyl-pyrazin-2-yl)-ureido]-phenoxy}-propyl)-2-(4-methyl-piperazin-1-yl)-acetamide], the inhibition at 1 µM is at least 50% and the inhibition at 10 µM was at least 50%. In the case of `Cc1cnc(NC(=O)Nc2cc(Cl)ccc2OCCCNC(=O)C(N)c2ccc(Cl)cc2)cn1` (centres unmarked) [Compound I-111, 2-Amino-N-(3-{4-chloro-2-[3-(5-methyl-pyrazin-2-yl)-ureido]-phenoxy}-propyl)-2-(4-chloro-phenyl)-acetamide], the inhibition at 1 µM was at least 50% and the inhibition at 10 µM is at least 50%. With `Cc1cnc(NC(=O)Nc2cc(Cl)ccc2OCCCNC(=O)CN(C)C)cn1` [Compound I-4, N-(3-{4-Chloro-2-[3-(5-methyl-pyrazin-2-yl)-ureido]-phenoxy}-propyl)-2-dimethylamino-acetamide], the inhibition at 1 µM is at least 50% and the inhibition at 10 µM was at least 50%. `Cc1cnc(NC(=O)Nc2ccc(N3CCCC3)cc2OCCCNC(=O)c2ccc(Cl)cc2)cn1` [Compound I-10, 4-Chloro-N-(3-{2-[3-(5-methyl-pyrazin-2-yl)-ureido]-5-pyrrolidin-1-yl-phenoxy}-propyl)-benzamide]: the inhibition at 10 µM was at least 50%. Take `Cc1cnc(NC(=O)Nc2cc(Cl)ccc2OCCCNC(=O)N2CCOCC2)cn1` [Compound I-5, Morpholine-4-carboxylic acid (3-{4-chloro-2-[3-(5-methyl-pyrazin-2-yl)-ureido]-phenoxy}-propyl)-amide]: the inhibition at 1 µM was at least 50% and the inhibition at 10 µM was at least 50%. Consider `Cc1cnc(NC(=O)Nc2cc(Cl)ccc2OCC(=O)N2CCOCC2)cn1` [Compound I-8, 1-[5-Chloro-2-(2-morpholin-4-yl-2-oxo-ethoxy)-phenyl]-3-(5-methyl-pyrazin-2-yl)-urea], for which the inhibition at 1 µM is at least 50% and the inhibition at 10 µM was at least 50%.

For `N#Cc1ccc(NC(=O)Nc2cc(Cl)ccc2OCCCNC(=O)N2CCOCC2)nc1` [Compound I-12, Morpholine-4-carboxylic acid (3-{4-chloro-2-[3-(5-cyano-pyridin-2-yl)-ureido]-phenoxy}-propyl)-amide], the inhibition at 1 µM is at least 50% and the inhibition at 10 µM was at least 50%.

Consider `Cc1cnc(NC(=O)Nc2ccc(N3CCN(C)CC3)cc2OCCCNC(=O)c2ccc(Cl)cc2)cn1` [Compound I-13, 4-Chloro-N-(3-{5-(4-methyl-piperazin-1-yl)-2-[3-(5-methyl-pyrazin-2-yl)-ureido]-phenoxy}-propyl)-benzamide], for which the inhibition at 1 µM was at least 50% and the inhibition at 10 µM was at least 50%.

The record behind these values is patent US20050176733A1, “Chk-1 inhibitors” (Millennium Pharmaceuticals, Inc., priority 2004, published 2005).
